For series [1], the system named is Enterococcus faecalis. The series is described as follows: Antimicrobial activity against Enterococcus faecalis;IA is Inactive. The format is functional, organism-based.
The subject of another series is Pseudomonas aeruginosa. Nature of the series: Antimicrobial activity against Pseudomonas aeruginosa 108;IA is Inactive. The format is functional, organism-based.
For series [2], the system named is Proteus mirabilis. The series is described as follows: The compound has antimicrobial activity against Proteus mirabilis; Active. The format is functional, organism-based.
Series [3] has as its system Staphylococcus aureus. The series is described as follows: Antimicrobial activity against Staphylococcus aureus;IA is Inactive. The format is functional, organism-based.
For a further series, the system named is Escherichia coli. The series is described as follows: Antimicrobial activity against Escherichia coli;IA is Inactive. The format is functional, organism-based.
Series [4] deals with Proteus mirabilis. The series is described as follows: Antimicrobial activity against Proteus mirabilis;IA is Inactive. The format is functional, organism-based.
Another series has as its system Klebsiella aerogenes. Nature of the series: Activity against Enterobacter aerogenes. The format is functional.
A further series in a line: in vivo. The following applies: eutheria.
Series [5] relates to Enterococcus faecalis. Nature of the series: The compound has antimicrobial activity against Enterococcus faecalis; Active. The format is functional, organism-based.
Series [6] has as its system Staphylococcus aureus. Nature of the series: The compound has antimicrobial activity against Staphylococcus aureus; Active. The format is functional, organism-based.

For orientation: bioavailability means dose-corrected exposure relative to a reference, in per cent.

Calls of active or inactive are those of the source. The calls are words filed in the database; no cut-off is given here.

As for `CC1=CC(=C(c2cc(C)c(O)c(CN(CC(=O)O)CC(=O)O)c2)c2ccccc2S(=O)(=O)O)C=C(CN(CC(=O)O)CC(=O)O)C1=O`, the outcome with Enterococcus faecalis [1], in the series on Pseudomonas aeruginosa, in the series on Staphylococcus aureus [3] and with Escherichia coli was inactive. Besides, the result with Proteus mirabilis [2] was Active.
Consider `Nc1ccc(C(=O)Nc2ccc3c(O)c(/N=N/c4ccc(C(=O)Nc5ccc(/N=N/c6ccc7cc(S(=O)(=O)O)cc(S(=O)(=O)O)c7c6)c(O)c5)cc4)c(S(=O)(=O)O)cc3c2)cc1`, for which the outcome in the series on Enterococcus faecalis [1], in the series on Pseudomonas aeruginosa, in the series on Proteus mirabilis [4], with Staphylococcus aureus [3] and in the series on Escherichia coli was inactive.
As for `OCC(O)C(OC1CO1)OC1CO1` (stereo not given), the result with Enterococcus faecalis [1], in the series on Pseudomonas aeruginosa, in the series with Proteus mirabilis [4], in the series with Staphylococcus aureus [3] and in the series on Escherichia coli was inactive.
In turn, `CNn1cc(C(=O)O)c(=O)c2cc(F)c(N3CCN(C)CC3)cc21` [AMIFLOXACIN] displayed a CMI in the series on Klebsiella aerogenes of 0.11 mg/L.
Same read-out and setting: the value for `O=C(O)c1cn(C2CC2)c2cc(N3CCNCC3)c(F)cc2c1=O` [CIPROFLOXACIN] was 0.03 mg/L; that for `CN1CCN(c2cc3c(cc2F)c(=O)c(C(=O)O)cn3-c2ccc(F)cc2)CC1` [DIFLOXACIN] was 0.19 mg/L.
Turning to `CCn1cc(C(=O)O)c(=O)c2cc(F)c(N3CCNCC3)nc21` [ENOXACIN], in the series on Klebsiella aerogenes, the CMI is 0.16 mg/L. Besides, the bioavailability in the series “in vivo” turned out to be 87.4%.
For `CCn1cc(C(=O)O)c(=O)c2cc(F)c(N3CCNC(C)C3)c(F)c21` (stereo not given) [LOMEFLOXACIN] the same measures were 0.16 mg/L and 98%.
Regarding `CCn1cc(C(=O)O)c(=O)c2ccc(C)nc21` [NALIDIXIC ACID], the result in the series with Enterococcus faecalis [5], with Proteus mirabilis [2] and in the series on Staphylococcus aureus [6] was Active. For the same molecule, the CMI in the series with Klebsiella aerogenes is 3 mg/L. Further, the result in the series with Pseudomonas aeruginosa and in the series on Escherichia coli was inactive. This molecule also came in with a bioavailability in “in vivo” of 60%.
Take `CCn1cc(C(=O)O)c(=O)c2cc(F)c(N3CCNCC3)cc21` [NORFLOXACIN]: the CMI in the series on Klebsiella aerogenes is 0.1 mg/L. This molecule also gave a bioavailability in the series “in vivo” of 63%.
In the series on Klebsiella aerogenes, `CC1COc2c(N3CCN(C)CC3)c(F)cc3c(=O)c(C(=O)O)cn1c23` (stereo not given) [OFLOXACIN] came in with a CMI of 0.12 mg/L. The molecule further displayed a bioavailability in the series “in vivo” of 94.4%.
For the molecule `CCn1cc(C(=O)O)c(=O)c2cc3c(cc21)OCO3` [OXOLINIC ACID], the CMI in the series with Klebsiella aerogenes was found to be 0.5 mg/L.
The molecule `CCn1cc(C(=O)O)c(=O)c2cc(F)c(N3CCN(C)CC3)cc21` [PEFLOXACIN] returned a CMI in the series on Klebsiella aerogenes of 0.12 mg/L. In addition, the bioavailability in the series “in vivo” is 91.2%.
With `CCn1cc(C(=O)O)c(=O)c2cnc(N3CCNCC3)nc21` [PIPEMIDIC ACID], the CMI in the series on Klebsiella aerogenes was 2 mg/L.
Consider `CC1CN(c2cc3c(cc2F)c(=O)c(C(=O)O)cn3-c2ccc(F)cc2F)CCN1` (stereo not given) [TEMAFLOXACIN], for which the CMI in the series on Klebsiella aerogenes was found to be 0.16 mg/L. Further, the bioavailability in “in vivo” is 90%.
For the molecule `NC1CCN(c2nc3c(cc2F)c(=O)c(C(=O)O)cn3-c2ccccc2F)C1` (stereo not given) [TUSOFLOXACINE], the CMI with Klebsiella aerogenes is 0.05 mg/L.

Source of the values: ChEMBL document CHEMBL1136155, “Search compounds with antimicrobial activity by applying molecular topology to selected quinolones” (Bioorg Med Chem Lett, 2003).
